Laboratory results as given in US12497405B2, “Bicyclic heterocycle compounds methods of use thereof for the treatment of herpes viruses” (Merck Sharp & Dohme LLC, priority 2019, dated 2025).

Assays:
HSV2 = assay: Viral qPCR assay, HSV2; type: cell-based; details: Human alphaherpesvirus 2, 72 h, infected cells, viral genome copies by qPCR normalized to PPIA, read-out: HSV2 Cell EC50
Outline: (§1)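 Read-out: viral gene copies by TaqMan qPCR, normalized to cellular PPIA and scaled between uninfected and DMSO-infected controls. Infected MRC5, Vero or MeWo cells were exposed to 10 compound concentrations (3-fold steps) for ~72 hrs. EC50 was from a 4-parameter curve.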

[1] = biological target: varicella zoster virus DNA polymerase (Varicella-zoster virus (strain Dumas) (HHV-3) (Human herpesvirus 3), UniProt P09252); assay: VZV polymerase assay (AlphaLISA); type: biochemical; details: VZV polymerase 0.4 nM, 30 min pre-incubation, 60 minute at 37° C.
Experimental: (§2) Human cytomegalovirus and varicella zoster virus DNA polymerases were expressed via baculovirus vector in SF21 cells and purified. Heterodimeric nucleic acid substrate used in the herpesvirus polymerase reactions were generated by annealing a 59-mer template to a 17-mer digoxigenin-labeled primer. Polymerase (HCMV final concentration of 0.2 nM; VZV final concentration of 0.4 nM) was combined with an inhibitor compound or DMSO in assay buffer (10 mM HEPES, pH 7.5, 25 mM KCl, 25 mM NaCl, 5 mM MgCl2, 5% glycerol, 0.67 mg/ml bovine serum albumin, and 1 mM tris(2-carboxyethyl)phosphine)), and this mixture was pre-incubated for 30 minutes at room temperature in 384-well microtiter plates. The polymerization reaction was initiated by the addition of template/primer substrate (final concentration: 1.6 nM), and dNTPs (final concentration: 24 nM dCTP, 24 nMdGTP, 16 nM dATP, 16 nM dTTP, and 0.8 nM biotin-dUTP). After a 60 minute incubation period at 37° C., the reactions were terminated using quench buffer (25 mM HEPES pH 7.5, 100 mM NaCl, 0.25% Tween-20, 12 mM EDTA, and 1 mg/ml bovine serum albumin). Incorporation of biotinylated UTP was detected with 2.5-5 μg/mL anti-DIG AlphaLISA acceptor beads and 5-10 μg/mL streptavidin AlphaLISA donor beads (PerkinElmer). Compound effects were normalized to the window defined by the controls (DMSO only and pre-quenched wells), and were fit using a 4-parameter algorithm to report an IC50.

[2] = biological target: Human cytomegalovirus DNA polymerase (Human cytomegalovirus (strain AD169) (HHV-5) (Human herpesvirus 5), UniProt P08546); assay: CMV polymerase assay (AlphaLISA); type: biochemical; details: HCMV polymerase 0.2 nM, 30 min pre-incubation, 60 minute at 37° C.
Experimental: as §2

HSV1 = assay: Viral qPCR assay, HSV1; type: cell-based; details: Human alphaherpesvirus 1, 72 h, infected cells, viral genome copies by qPCR normalized to PPIA, read-out: HSV1 Cell EC50
Outline: as §1

CMV = assay: Viral qPCR assay, CMV; type: cell-based; details: Human betaherpesvirus 5, 72 h, infected cells, viral genome copies by qPCR normalized to PPIA, read-out: CMV Cell EC50
Outline: as §1

| Structure (SMILES) | EC50 (HSV2) [nM] | IC50 [1] [nM] | IC50 [2] [nM] | EC50 (HSV1) [nM] | EC50 (CMV) [nM] |
| --- | --- | --- | --- | --- | --- |
| O=C1OC[C@@H]2C[C@@H](Oc3cc4c(=O)n(Cc5ccc(Cl)cc5)ccc4nc3-c3cnn(C(F)F)c3)CCN12 [Example 31] | 46 | 2.1 | 3 | 139 | 101 |
| CC(C)(N)Cc1cc2ccn(Cc3ccc(Cl)cc3)c(=O)c2cc1O[C@H]1CCN2C(=O)OC[C@@H]2C1 [Example 32] | 402 | 33 | 15 | 772 | 392 |
| CC(C)(O)Cc1cc2ccn(Cc3ccc(Cl)cc3)c(=O)c2cc1O[C@H]1CCN2C(=O)OC[C@@H]2C1 [Example 34] | 81 | 1.4 | 2.1 | 110 | 74 |
| O=C1OC[C@@H]2C[C@@H](Oc3cc4c(=O)n(Cc5ccc(Cl)cc5)cnc4nc3-c3cnn(C(F)F)c3)CCN12 [Example 36] | 28 | 1.5 | 1.9 | 49 | 37 |
| O=C1OC[C@@H]2C[C@@H](Oc3cc4c(=O)n(Cc5ccc(Cl)cc5)ccc4nc3-c3cnco3)CCN12 [Example 38] | 28 | 0.33 | 1.1 | 48 | 24 |
| COc1nc2ccn(Cc3ccc(Cl)cc3)c(=O)c2cc1O[C@H]1CCN2C(=O)OC[C@@H]2C1 [Example 39] | 952 | 41 | 28 | 1340 | 520 |
| Cc1nc2ccc(O[C@H]3CCN4C(=O)OC[C@@H]4C3)cc2c(=O)n1Cc1ccc(Cl)cc1 [Example 40] | 304 | 17 | 11 | 386 | 157 |
| N#Cc1cc2ncn(Cc3ccc(Cl)cc3)c(=O)c2cc1O[C@H]1CCN2C(=O)OC[C@@H]2C1 [Example 41] | 75 | 1.1 | 2.7 | 131 | 77 |
| O=C1OC[C@@H]2C[C@@H](Oc3cc(-c4cnco4)c4ncn(Cc5ccc(Cl)cc5)c(=O)c4c3)CCN12 [Example 42] | 92 | 13 | 21 | 233 | 181 |
| CC(C)(O)Cc1nc2ncn(Cc3ccc(Cl)cc3)c(=O)c2cc1O[C@H]1CCN2C(=O)OC[C@@H]2C1 [Example 45] | 309 | 25 | 11 | 268 | 269 |
| O=C1OC[C@@H]2C[C@@H](Oc3cc(CO)c4ncn(Cc5ccc(Cl)cc5)c(=O)c4c3)CCN12 [Example 46] | 334 | 20 | 24 | 423 | 174 |
| CC(C)(O)Cc1cc(O[C@H]2CCN3C(=O)OC[C@@H]3C2)cc2c(=O)n(Cc3ccc(Cl)cc3)cnc12 [Example 48] | 645 | 37 | 42 | 701 | 273 |
| O=C1OC[C@@H]2C[C@@H](Oc3ccc4nc(C5CC5)n(Cc5ccc(Cl)cc5)c(=O)c4c3)CCN12 [Example 49] | 1080 | 43 | 29 | 1130 | 369 |
| Cc1nc2cc(-c3cnco3)c(O[C@H]3CCN4C(=O)OC[C@@H]4C3)cc2c(=O)n1Cc1ccc(Cl)cc1 [Example 51] | 16 | 0.44 | 0.22 | 26 | 21 |
| Cc1nc2cc(-c3cnn(C)c3)c(O[C@H]3CCN4C(=O)OC[C@@H]4C3)cc2c(=O)n1Cc1ccc(Cl)cc1 [Example 52] | 19 | 0.44 | 0.3 | 39 | 22 |
| Cc1nc2cc(-c3cn[nH]c3)c(O[C@H]3CCN4C(=O)OC[C@@H]4C3)cc2c(=O)n1Cc1ccc(Cl)cc1 [Example 53] | 35 | 0.56 | 0.76 | 89 | 86 |
| Cc1nc2cc(-c3cccnc3)c(O[C@H]3CCN4C(=O)OC[C@@H]4C3)cc2c(=O)n1Cc1ccc(Cl)cc1 [Example 54] | 173 | 28 | 23 | 238 | 82 |

| Structure (SMILES) | EC50 (HSV2) [nM] | IC50 [1] [nM] | IC50 [2] [nM] | EC50 (HSV1) [nM] | EC50 (CMV) [nM] |
| --- | --- | --- | --- | --- | --- |
| Cc1nc2cc(C#N)c(O[C@H]3CCN4C(=O)OC[C@@H]4C3)cc2c(=O)n1Cc1ccc(Cl)cc1 [Example 56] | 109 | 6.5 | 2.8 | 124 | 64 |
| COc1nc2ccc(O[C@H]3CCN4C(=O)OC[C@@H]4C3)cc2c(=O)n1Cc1ccc(Cl)cc1 [Example 58] | 1140 | 47 | 23 | 996 | 173 |
| Cc1nc2ccc(O[C@H]3CCN4C(=O)OC[C@@H]4C3)cc2c(=O)n1Cc1ccc(C#N)cc1 [Example 59] | 561 | 29 | 31 | 746 | 347 |
| Cc1nc2cc(-c3cnco3)c(O[C@H]3CCN4C(=O)OC[C@@H]4C3)cc2c(=O)n1Cc1ccc(C#N)cc1 [Example 60] | 40 | 0.44 | 0.82 | 84 | 53 |
| Cc1nc2cc(-c3cnn(C(F)F)c3)c(O[C@H]3CCN4C(=O)OC[C@@H]4C3)cc2c(=O)n1Cc1ccc(C#N)cc1F [Example 64] | 51 | 8.9 | 2.5 | 71 | 64 |
| CCc1nc2cc(-c3cnco3)c(O[C@H]3CCN4C(=O)OC[C@@H]4C3)cc2c(=O)n1Cc1ccc(C#N)cc1 [Example 65] | 18 | 0.68 | 1.2 | 46 | 28 |
| Cc1nc2cc(-c3cnn(C(F)F)c3)c(O[C@H]3CCN4C(=O)OC[C@@H]4C3)cc2c(=O)n1Cc1ccc(C#N)c(F)c1 [Example 66] | 34 | 4.8 | 2.2 | 43 | 50 |
| Cc1nc2ncc(O[C@H]3CCN4C(=O)OC[C@@H]4C3)cc2c(=O)n1Cc1ccc(Cl)cc1 [Example 69] | 1300 | 29 | 35 | 870 | 307 |
| Cc1nc2cc(-c3cnn(C4CCN(C)CC4)c3)c(O[C@H]3CCN4C(=O)OC[C@@H]4C3)cc2c(=O)n1Cc1ccc(C#N)cc1 [Example 71] | 171 | 13 | 3.7 | 234 | 197 |
| Cc1nc2cc(C3CC(O)C3)c(O[C@H]3CCN4C(=O)OC[C@@H]4C3)cc2c(=O)n1Cc1ccc(C#N)cc1 (stereo partly drawn) [Example 72] | 404 | 4.7 | 7.5 | 181 | 195 |
| Cc1nc2cc(-c3cn4c(n3)CNCC4)c(O[C@H]3CCN4C(=O)OC[C@@H]4C3)cc2c(=O)n1Cc1ccc(C#N)cc1 [Example 73] | 3020 | 5.2 | 1 | 3880 | 4180 |
| Cc1nc2cc(C3CC(C)(O)C3)c(O[C@H]3CCN4C(=O)OC[C@@H]4C3)cc2c(=O)n1Cc1ccc(C#N)cc1 (stereo partly drawn) [Example 74] | 432 | 6.4 | 6.4 | 447 | 55 |
| COc1ncc(-c2cc3nc(C)n(Cc4ccc(C#N)cc4)c(=O)c3cc2O[C@H]2CCN3C(=O)OC[C@@H]3C2)cn1 [Example 75] | 413 | 23 | 29 | 381 | 164 |
| Cc1nc2cc(-c3cc(C(F)(F)F)[nH]n3)c(O[C@H]3CCN4C(=O)OC[C@@H]4C3)cc2c(=O)n1Cc1ccc(C#N)cc1 [Example 76] | 309 | 11 | 11 | 412 | 261 |
| CCc1nc2cc(-c3cnc(OC)nc3)c(O[C@H]3CCN4C(=O)OC[C@@H]4C3)cc2c(=O)n1Cc1ccc(Cl)cc1 [Example 78] | 224 | 20 | 15 | 405 | 178 |
| Cc1nc2cc(-c3cn4c(n3)CN(C)CC4)c(O[C@H]3CCN4C(=O)OC[C@@H]4C3)cc2c(=O)n1Cc1ccc(Cl)cc1 [Example 79] | 123 | 5.5 | 4.9 | 111 | 147 |
